From ChEMBL document CHEMBL5338806, “Rationally Designed Nonapeptides with Great Skin Photoprotective Effect through Producing Type 1 Collagen and Blocking the mTOR Pathway” (J Med Chem, 2023)
Active and inactive are the calls of the source. The calls are words filed in the database; no cut-off is given here. Where a SMILES comes first, the peptide text is derived from it.

Key:
[1] = Antioxidant activity assessed as ROS scavenging activity; type: functional
HFF-1 = test: Cytotoxicity against HFF-1 cells upto 160 ug/mL incubated for 24 hrs by MTT assay; type: toxicity, cell-based; conditions: human, hff-1, 24 h, up to 160 µg/mL
HEK293 = test: Activation of COL1a2 transcriptional activity in HEK293 cells by dual-luciferase reporter assay; type: functional, cell-based; conditions: Homo sapiens
[2] = Antioxidant activity assessed as DPPH radical scavenging activity by measuring eradication rate at 80 ug/mL incubated for 30 mins by absorbance based assay relative to control; type: functional; conditions: dose 80.0 µg/ml
Mus musculus = test: Protection against UV radiation-stress induced skin damage in Kunming mouse model assessed as repair of broken skin at 20 ug/ml administered topically and measured every 2 days for 10 days; type: functional, organism-based; conditions: dose 20.0 µg/ml, route top, time 10.0 day

Row | SMILES | Activity [1] | Activity (HFF-1) [%] | Activity (HEK293) | Activity [2] [%] | Activity (Mus musculus)
1 | CC(C)[C@H](N)C(=O)N[C@H](C(=O)N1CCC[C@H]1C(=O)N1CCC[C@H]1C(=O)N[C@@H](CS)C(=O)N[C@@H](CCCCN)C(=O)O)C(C)C (H-VVPPCK-OH) | Active | 2.84 |  |  | 
2 | CC(C)C[C@H](NC(=O)[C@H](CCCCN)NC(=O)[C@@H]1CCCN1C(=O)[C@H](CC(C)C)NC(=O)[C@@H](N)C(C)C)C(=O)N[C@@H](CCC(=O)O)C(=O)N[C@@H](CS)C(=O)N[C@H](C(=O)N[C@@H](Cc1c[nH]c2ccccc12)C(=O)O)C(C)C (H-VLPKLECVW-OH) |  |  | Active |  | 
3 | CC(C)[C@H](N)C(=O)N[C@H](C(=O)N[C@@H](CCCCN)C(=O)N[C@@H](CS)C(=O)N1CCC[C@H]1C(=O)N[C@@H](CCCCN)C(=O)O)C(C)C (H-VVKCPK-OH) | Active |  | Active | 85.4 | Active
4 | CC(C)C[C@H](NC(=O)[C@H](Cc1c[nH]c2ccccc12)NC(=O)[C@@H]1CCCN1C(=O)[C@@H]1CCCN1C(=O)[C@H](CC(C)C)NC(=O)[C@@H](N)CC(C)C)C(=O)N[C@@H](CCCNC(=N)N)C(=O)N1CCC[C@H]1C(=O)N[C@@H](CCCCN)C(=O)N[C@@H](CS)C(=O)N[C@@H](CO)C(=O)O (H-LLPPWLRPKCS-OH) |  |  | Active |  | 
